# Earlier results in patent US20120195848A1, “STRONTIUM-CONTAINING BIOACTIVE BONE CEMENT” (The University of Hong Kong, priority 2011, published 2012).
# Read-outs that look alike come from different tables or passages of the source.
smiles,measurement,setting,value
"O=S(=O)([O-])[O-].[Sr+2] [SrSO4, strontium sulfate]",dissolution rate,25° C.,0.0135 g/100 mL
"O=C([O-])[O-].[Sr+2] [SrCO3, strontium carbonate]",dissolution rate,18° C.,0.0011 g/100 ml
"O=S(=O)([O-])[O-].[Ba+2] [BaSO4, reference compound]",dissolution rate,20° C.,0.0002448 g/100 mL
